Assay results as given in the NIST ThermoML archive (doi:10.1016/j.tca.2013.05.017).
Several values for one entry are separate records, joined by “and”; a condition that tells them apart may be missing. Equal entries are not always repeated. Numbers after ± are expanded uncertainties.

Assay: molar heat capacity at constant pressure
Conditions: 101.33 kPa, Crystal 2, Small (less than 1 g) adiabatic calorimetry

O=S(=O)([O-])[O-].[Sr+2] [sulfuric acid, strontium salt (1:1)]
Conditions	molar heat capacity at constant pressure
5 K	0.03816 ± 0.021 J/K/mol
5.083 K	0.04505 ± 0.021 J/K/mol
5.422 K	0.04233 ± 0.021 J/K/mol
5.622 K	0.05543 ± 0.021 J/K/mol
5.831 K	0.05464 ± 0.021 J/K/mol
6.044 K	0.06693 ± 0.021 J/K/mol
6.285 K	0.07062 ± 0.021 J/K/mol
6.354 K	0.08024 ± 0.021 J/K/mol
6.677 K	0.09728 ± 0.022 J/K/mol
6.759 K	0.1018 ± 0.022 J/K/mol
7.066 K	0.1205 ± 0.022 J/K/mol
7.169 K	0.1252 ± 0.022 J/K/mol
7.482 K	0.1475 ± 0.023 J/K/mol
7.591 K	0.1545 ± 0.023 J/K/mol
7.904 K	0.1777 ± 0.023 J/K/mol
8.021 K	0.1873 ± 0.023 J/K/mol
8.33 K	0.2151 ± 0.024 J/K/mol
8.448 K	0.2273 ± 0.024 J/K/mol
8.763 K	0.2543 ± 0.024 J/K/mol
8.881 K	0.2707 ± 0.025 J/K/mol
9.197 K	0.3046 ± 0.025 J/K/mol
9.317 K	0.3217 ± 0.025 J/K/mol
9.635 K	0.3631 ± 0.026 J/K/mol
9.755 K	0.3798 ± 0.026 J/K/mol
10 K	0.4163 ± 0.027 J/K/mol
10.08 K	0.427 ± 0.027 J/K/mol
10.2 K	0.4451 ± 0.027 J/K/mol
10.75 K	0.543 ± 0.029 J/K/mol
10.86 K	0.5647 ± 0.029 J/K/mol
11.64 K	0.7154 ± 0.031 J/K/mol
11.75 K	0.7406 ± 0.032 J/K/mol
12.54 K	0.9194 ± 0.034 J/K/mol
12.65 K	0.9503 ± 0.035 J/K/mol
13.45 K	1.16 ± 0.037 J/K/mol
13.55 K	1.197 ± 0.038 J/K/mol
14.36 K	1.446 ± 0.041 J/K/mol
14.47 K	1.484 ± 0.042 J/K/mol
15 K	1.665 ± 0.044 J/K/mol
15.29 K	1.771 ± 0.045 J/K/mol
15.39 K	1.813 ± 0.046 J/K/mol
16.22 K	2.105 ± 0.049 J/K/mol
16.32 K	2.148 ± 0.05 J/K/mol
17.16 K	2.488 ± 0.053 J/K/mol
17.26 K	2.531 ± 0.054 J/K/mol
18.1 K	2.928 ± 0.058 J/K/mol
18.2 K	2.96 ± 0.058 J/K/mol
19.05 K	3.383 ± 0.063 J/K/mol
19.14 K	3.432 ± 0.063 J/K/mol
20 K	3.864 ± 0.067 J/K/mol
20.01 K	3.84 ± 0.067 J/K/mol
20.1 K	3.907 ± 0.068 J/K/mol
21.44 K	4.638 ± 0.074 J/K/mol
21.53 K	4.687 ± 0.074 J/K/mol
23.36 K	5.734 ± 0.082 J/K/mol
23.44 K	5.783 ± 0.082 J/K/mol
25 K	6.782 ± 0.089 J/K/mol
25.3 K	6.945 ± 0.09 J/K/mol
25.37 K	6.99 ± 0.09 J/K/mol
27.25 K	8.25 ± 0.096 J/K/mol
27.32 K	8.313 ± 0.096 J/K/mol
29.2 K	9.624 ± 0.1 J/K/mol
30 K	10.21 ± 0.15 J/K/mol
30.75 K	10.74 ± 0.15 J/K/mol
31.17 K	11.03 ± 0.16 J/K/mol
32.62 K	12.1 ± 0.16 J/K/mol
33.14 K	12.44 ± 0.16 J/K/mol
34.6 K	13.58 ± 0.17 J/K/mol
34.76 K	13.71 ± 0.17 J/K/mol
35 K	13.95 ± 0.17 J/K/mol
35.1 K	13.99 ± 0.17 J/K/mol
36.58 K	15.12 ± 0.18 J/K/mol
36.73 K	15.23 ± 0.18 J/K/mol
37.07 K	15.51 ± 0.18 J/K/mol
38.55 K	16.71 ± 0.18 J/K/mol
38.7 K	16.81 ± 0.18 J/K/mol
40 K	17.87 ± 0.19 J/K/mol
40.53 K	18.29 ± 0.19 J/K/mol
40.68 K	18.39 ± 0.19 J/K/mol
42.52 K	19.85 ± 0.2 J/K/mol
42.65 K	19.96 ± 0.2 J/K/mol
44.51 K	21.4 ± 0.21 J/K/mol
44.63 K	21.49 ± 0.21 J/K/mol
45 K	21.83 ± 0.21 J/K/mol
46.49 K	22.95 ± 0.21 J/K/mol
46.61 K	23 ± 0.21 J/K/mol
48.48 K	24.46 ± 0.22 J/K/mol
48.59 K	24.49 ± 0.22 J/K/mol
50 K	25.73 ± 0.23 J/K/mol
50.48 K	26 ± 0.23 J/K/mol
50.57 K	26.02 ± 0.23 J/K/mol
52.46 K	27.61 ± 0.24 J/K/mol
52.55 K	27.61 ± 0.24 J/K/mol
54.45 K	29.14 ± 0.25 J/K/mol
54.52 K	29.14 ± 0.25 J/K/mol
55 K	29.5 ± 0.25 J/K/mol
56.45 K	30.48 ± 0.25 J/K/mol
56.51 K	30.49 ± 0.25 J/K/mol
58.44 K	31.73 ± 0.26 J/K/mol
58.49 K	31.79 ± 0.26 J/K/mol
60 K	33.05 ± 0.27 J/K/mol
60.44 K	33.28 ± 0.27 J/K/mol
60.48 K	33.28 ± 0.27 J/K/mol
62.43 K	34.65 ± 0.27 J/K/mol
62.46 K	34.66 ± 0.27 J/K/mol
64.42 K	35.97 ± 0.28 J/K/mol
64.44 K	35.9 ± 0.28 J/K/mol
65 K	36.36 ± 0.28 J/K/mol
66.35 K	37.12 ± 0.29 J/K/mol and 37.15 ± 0.29 J/K/mol
68.19 K	38.26 ± 0.29 J/K/mol
68.21 K	38.27 ± 0.29 J/K/mol
69.98 K	39.31 ± 0.3 J/K/mol
70 K	39.32 ± 0.3 J/K/mol and 39.45 ± 0.3 J/K/mol
72.35 K	40.74 ± 0.3 J/K/mol
72.39 K	40.75 ± 0.3 J/K/mol
75 K	42.32 ± 0.31 J/K/mol
75.34 K	42.37 ± 0.31 J/K/mol
75.41 K	42.41 ± 0.31 J/K/mol
78.33 K	43.98 ± 0.32 J/K/mol
78.44 K	44.04 ± 0.32 J/K/mol
79.87 K	44.73 ± 0.32 J/K/mol
80 K	44.96 ± 0.33 J/K/mol
81.29 K	45.47 ± 0.33 J/K/mol
81.33 K	45.52 ± 0.33 J/K/mol
81.48 K	45.58 ± 0.33 J/K/mol
83.56 K	46.57 ± 0.33 J/K/mol
84.99 K	47.25 ± 0.34 J/K/mol
85 K	47.4 ± 0.34 J/K/mol
85.53 K	47.51 ± 0.34 J/K/mol
85.54 K	47.52 ± 0.34 J/K/mol
86.61 K	48.03 ± 0.34 J/K/mol
88.05 K	48.76 ± 0.34 J/K/mol
89.26 K	49.19 ± 0.35 J/K/mol
89.28 K	49.23 ± 0.35 J/K/mol
89.67 K	49.42 ± 0.35 J/K/mol
90 K	49.69 ± 0.4 J/K/mol
92.33 K	50.55 ± 0.4 J/K/mol
92.35 K	50.59 ± 0.4 J/K/mol
92.74 K	50.75 ± 0.4 J/K/mol
95 K	51.83 ± 0.41 J/K/mol
95.41 K	51.85 ± 0.41 J/K/mol
95.43 K	51.89 ± 0.41 J/K/mol
95.81 K	52.06 ± 0.41 J/K/mol
98.5 K	53.08 ± 0.41 J/K/mol
98.51 K	53.12 ± 0.41 J/K/mol
98.89 K	53.27 ± 0.41 J/K/mol
100 K	53.84 ± 0.42 J/K/mol
101.59 K	54.27 ± 0.42 J/K/mol
101.61 K	54.31 ± 0.42 J/K/mol
101.98 K	54.46 ± 0.42 J/K/mol
104.69 K	55.44 ± 0.42 J/K/mol
104.71 K	55.47 ± 0.42 J/K/mol
105.08 K	55.61 ± 0.42 J/K/mol
107.8 K	56.58 ± 0.43 J/K/mol
107.82 K	56.6 ± 0.43 J/K/mol
108.19 K	56.76 ± 0.43 J/K/mol
110 K	57.52 ± 0.43 J/K/mol
110.92 K	57.67 ± 0.43 J/K/mol
110.94 K	57.74 ± 0.43 J/K/mol
111.31 K	57.81 ± 0.43 J/K/mol
114.04 K	58.72 ± 0.44 J/K/mol
114.06 K	58.77 ± 0.44 J/K/mol
114.43 K	58.88 ± 0.44 J/K/mol
117.18 K	59.76 ± 0.44 J/K/mol
117.2 K	59.81 ± 0.44 J/K/mol
117.56 K	59.97 ± 0.44 J/K/mol
120 K	60.88 ± 0.44 J/K/mol
120.32 K	60.79 ± 0.44 J/K/mol
120.33 K	60.87 ± 0.44 J/K/mol
120.71 K	60.96 ± 0.44 J/K/mol
123.46 K	61.8 ± 0.45 J/K/mol
123.49 K	61.84 ± 0.45 J/K/mol
123.85 K	61.96 ± 0.45 J/K/mol
126.62 K	62.8 ± 0.45 J/K/mol
126.64 K	62.83 ± 0.45 J/K/mol
127.01 K	62.93 ± 0.45 J/K/mol
129.77 K	63.78 ± 0.46 J/K/mol
129.8 K	63.86 ± 0.46 J/K/mol
130 K	64.04 ± 0.46 J/K/mol
130.19 K	63.91 ± 0.46 J/K/mol
132.94 K	64.72 ± 0.46 J/K/mol
132.97 K	64.77 ± 0.46 J/K/mol
133.35 K	64.93 ± 0.46 J/K/mol
136.13 K	65.69 ± 0.46 J/K/mol
136.16 K	65.79 ± 0.46 J/K/mol
136.53 K	65.82 ± 0.46 J/K/mol
139.32 K	66.68 ± 0.47 J/K/mol
139.35 K	66.65 ± 0.47 J/K/mol
139.72 K	66.8 ± 0.47 J/K/mol
140 K	67.03 ± 0.47 J/K/mol
142.51 K	67.53 ± 0.47 J/K/mol
142.54 K	67.62 ± 0.47 J/K/mol
142.91 K	67.65 ± 0.47 J/K/mol
